Measurements taken from article doi:10.1101/2024.12.03.626577v1 (biorxiv, 2024).
Like-named read-outs stand apart in the source and are kept apart here.

Key:
[1] = molecular target: T1, TRIM21^PRY-SPRY (287-465aa) (Homo sapiens, UniProt P19474); test: SPR; format: binding
PANC-1 = test: cells; conditions: Homo sapiens, PANC-1, 72 h, read-out: PANC-1 IC50 (µM)
[2] = molecular target: T1, TRIM21^PRY-SPRY (287-465aa); test: SPR; format: binding; remark: listed apart in the source

T1 sequence (P19474 287-465): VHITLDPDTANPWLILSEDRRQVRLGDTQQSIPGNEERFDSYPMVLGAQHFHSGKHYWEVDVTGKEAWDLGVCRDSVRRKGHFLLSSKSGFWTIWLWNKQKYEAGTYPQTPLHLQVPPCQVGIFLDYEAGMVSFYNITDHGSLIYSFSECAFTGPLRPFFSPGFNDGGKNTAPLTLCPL

Kd [1] [nM] | IC50 (PANC-1) [µM] | Kd [2] [nM] | Structure (SMILES)
610 |  |  | Cc1ccccc1-c1ccc(C(=O)N(C)CC2CCCCC2)c(S(C)(=O)=O)c1 [2c, Compound 2c]
 | 0.791 |  | COc1cnccc1-c1ccc(C(=O)N(C)CC2CCCCC2)c(S(C)(=O)=O)c1 [2d]
1570 |  |  | COc1cnccc1-c1ccc(C(=O)N(C)CC2CCCCC2)c(S(C)(=O)=O)c1 [2d, Compound 2d]
123 |  |  | CSc1ccccc1-c1ccc(C(=O)N(C)CC2CCCCC2)c(S(C)(=O)=O)c1 [1a, Compound 1a]
581 |  |  | CCc1ccccc1CN(C)C(=O)c1ccc(-c2ccccc2SC)cc1S(C)(=O)=O [1e, Compound 1e]
29 |  |  | CSc1ccccc1-c1ccc(C(=O)N(C)CC2CCOCC2)c(S(C)(=O)=O)c1 [1b, Compound 1b]
 |  | 193 | CSc1ccccc1-c1ccc(C(=O)N(C)CC2(F)CCCCC2)c(S(C)(=O)=O)c1 [compound 1, Compound 1]
17 |  |  | CSc1ccccc1-c1ccc(C(=O)N(C)Cc2cc[nH]c2)c(S(C)(=O)=O)c1 [1c, Compound 1c]
11 |  |  | CSc1ccccc1-c1ccc(C(=O)N(C)Cc2cc[nH]c(=O)c2)c(S(C)(=O)=O)c1 [1g, Compound 1g]
 | 1.62 |  | Cc1ccccc1-c1ccc(C(=O)N(C)CC2CCCCC2)c(S(C)(=O)=O)c1 [2c]
350 |  |  | CSc1ccccc1-c1ccc(C(=O)N(C)CC2CCOC2)c(S(C)(=O)=O)c1 (centres unmarked) [1f, Compound 1f]
 | 0.094 |  | CSc1cc(F)ccc1-c1ccc(C(=O)N(C)CC2CCCCC2)c(S(C)(=O)=O)c1 [2e]
234 | 0.329 |  | CSc1ccccc1-c1ccc(C(=O)N(C)CC2CCCCC2(F)F)c(S(C)(=O)=O)c1 (centres unmarked) [2a, Compound 2a]
171 |  |  | CSc1ccccc1-c1ccc(C(=O)N(C)Cc2ccon2)c(S(C)(=O)=O)c1 [1d, Compound 1d]
2150 | 5.14 |  | CN(CC1CCCCC1)C(=O)c1ccc(-c2ccccc2F)cc1S(C)(=O)=O [2b, Compound 2b]
